This is an account of results in patent publication US9149478B2, “Diabetes therapy” (Boehringer Ingelheim International GmbH, priority 2010, dated 2015).

The conditions of data set [1]: in vivo; cited from earlier work.
Data set [2] deals with non-obese-diabetic (NOD) mice. The data set is described as follows: Onset of diabetes and stereological pancreas assessment in NOD mice over 60 days. The class given is in vivo, mouse. The conditions noted are these: female NOD mice. The text has this:
Though reduced pancreatic T-cell migration and altered cytokine production is considered important players for the onset of insulinitis the exact mechanism and effects on the pancreatic cell pool is still incompletely understood.
Bi-weekly plasma samples are obtained to determine onset of diabetes (BG>11 mmol/l).

Data set [3] is described as follows: Pharmacokinetic profile of linagliptin (general statement). The following applies: in vivo.
A short description of data set [4]: Safety and tolerability in people with type 2 diabetes.
Data set [5] can be described thus: Pharmacokinetics of BI 1356 after multiple oral doses once daily for 12 days in patients with type 2 diabetes. The conditions noted are these: for feτ,ss: steady state (Day 12); for feτ,ss / fe0-24: gMean (gCV); for fe0-24: fraction excreted in urine.

Regarding “N^εB29-(N^α-(ω-carboxypentadecanoyl)-L-γ-glutamyl) des(B30) human insulin [Insulin degludec]”, the duration of action entry in data set [1] is “more than 24 hours”.
`CC#CCn1c(N2CCC[C@@H](N)C2)nc2c1c(=O)n(Cc1nc(C)c3ccccc3n1)c(=O)n2C` [BI 1356, 1-[(4-methyl-quinazolin-2-yl)methyl]-3-methyl-7-(2-butyn-1-yl)-8-(3-(R)-amino-piperidin-1-yl)-xanthine]: the “incidence of diabetes (BG>11 mmol/l) at the end of the study period” value in data set [2] (0.083 g linagliptin/kg chow (3-10 mg/kg p.o.), 60 days) was 9 out of 30. The “beta cell mass (insulin immunoreactivity)” value in data set [2] (linagliptin in chow, 60 days, stereology) was 0.48 ± 0.09 mg. Also, the “active plasma GLP-1 at termination” value in data set [2] (linagliptin in chow, versus control) is recorded as “higher”. The half-life in data set [3] is at most 72 h. Moreover, the safety and tolerability entry in data set [4] is “placebo-like safety and tolerability”. In addition, the “feτ,ss” value is on record as 3.34 (38.3) % in data set [5] (1 mg oral once daily), 3.06 (45.1) % in data set [5] (2.5 mg oral once daily), 6.27 (42.2) % in data set [5] (5 mg oral once daily) and 3.22 (34.2) % in data set [5] (10 mg oral once daily). The fe0-24 in data set [5] (2.5 mg oral once daily) is reported as 0.139 (51.2) %; in data set [5] (5 mg oral once daily), 0.453 (125) %; in data set [5] (10 mg oral once daily), 0.919 (115) %. Besides, in data set [5] (doses above 1 mg, oral once daily), the “mean accumulation ratio RA,AUC” value is listed as at most 1.4. In addition, the “excreted via the kidney” value in data set [5] (therapeutic oral dose levels) was < 7 % of the administered oral dose. Also, the route of excretion result in data set [5] (therapeutic oral dose levels) is reported as “primarily excreted unchanged via the bile”.

As a reminder, the half-life is the time needed for the level to fall by half in the phase considered. Low values mean fast loss, high ones slow loss.
